According to PMC10930102 (Journal of Enzyme Inhibition and Medicinal Chemistry, 2024):
Where two headings read alike, the source gives them in different places.

Key:
IGF1R = biological target: T1, IGF1R (Homo sapiens, UniProt P08069); set-up: method as in PMID 22734674; details: cited from earlier work
T1 construct: purchased Reaction Biology Corporation

c-Src = biological target: T2, c-Src (Homo sapiens, UniProt P12931); set-up: method as in PMID 22734674; details: cited from earlier work
T2 construct: purchased Reaction Biology Corporation
T2 sequence (P12931 whole entry): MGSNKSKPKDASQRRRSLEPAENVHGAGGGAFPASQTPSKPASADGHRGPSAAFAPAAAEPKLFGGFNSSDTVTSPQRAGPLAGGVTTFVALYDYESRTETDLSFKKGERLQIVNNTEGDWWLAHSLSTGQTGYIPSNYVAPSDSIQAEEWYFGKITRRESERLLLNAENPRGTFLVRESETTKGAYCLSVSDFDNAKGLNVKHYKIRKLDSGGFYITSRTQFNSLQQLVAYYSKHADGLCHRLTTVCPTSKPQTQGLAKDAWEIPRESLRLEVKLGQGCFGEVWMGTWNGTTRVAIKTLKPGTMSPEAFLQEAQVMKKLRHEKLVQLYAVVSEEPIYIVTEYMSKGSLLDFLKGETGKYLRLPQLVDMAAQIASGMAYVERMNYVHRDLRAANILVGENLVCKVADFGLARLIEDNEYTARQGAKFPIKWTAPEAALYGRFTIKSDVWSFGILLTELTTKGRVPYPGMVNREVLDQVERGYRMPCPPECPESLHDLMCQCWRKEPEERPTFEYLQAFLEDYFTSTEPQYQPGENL

[1] = tested on: acetylated histone H3, a substrate of class I HDAC; experiment: Western blot of acetylated histone H3 in H2228 cells; type: cell-based, human; details: 6 h, 3b 2 µM
Text: (§1) Figure 4. Effect of test compounds on H2228 cells. […] (A) Western blots of phosphorylated tyrosine residue 1640 on ALK as well as acetylated (Ac) α-tubulin and histone H3 with their corresponding total proteins for normalisation. GAPDH was used as a loading control. (B) Quantification of western blotting results using Image J. Error bars indicate ± S.D.E. *p-Value ≤ 0.05, **p-value ≤ 0.01, ***p-value ≤ 0.001.
Treated cells were washed three times with ice-cold phosphate-buffered saline and lysed in lysis buffer containing 100 mM Tris-HCl, 12 mM sodium deoxycholate, 12 mM sodium lauroylsarcosinate, and protease inhibitor cocktail (BioTools). Cells were heated in lysis buffer at 95 °C for 5 min and then the cell membrane was broken up by sonication (Bioruptor). Cellular debris and unbroken cells were removed by centrifugation (12,500 × g for 30 min, 4 °C). Protein concentration was determined using the bicinchoninic acid assay (Thermo). Cell extracts (20 μg) were resolved by 12% sodium dodecyl sulfate-polyacrylamide gel electrophoresis (SDS-PAGE), transferred to PVDF membranes, and probed separately with antibodies for Ac-histone H3, Ac-α-tubulin, histone H3, α-tubulin, HDAC1, HDAC6, HDAC8 and GAPDH. […] Antibody signals were detected using an enhanced chemiluminescence system.

[2] = tested on: phosphorylation level of Y1604 on ALK; experiment: Western blot of ALK phosphorylation in H2228 cells; type: cell-based, human; details: 6 h, 3b 2 µM, 3c 4 µM
Text: as §1
(§2) Treated cells were washed three times with ice-cold phosphate-buffered saline and lysed in lysis buffer containing 100 mM Tris-HCl, 12 mM sodium deoxycholate, 12 mM sodium lauroylsarcosinate, and protease inhibitor cocktail (BioTools). Cells were heated in lysis buffer at 95 °C for 5 min and then the cell membrane was broken up by sonication (Bioruptor). Cellular debris and unbroken cells were removed by centrifugation (12,500 × g for 30 min, 4 °C). Protein concentration was determined using the bicinchoninic acid assay (Thermo). Cell extracts (20 μg) were resolved by 12% sodium dodecyl sulfate-polyacrylamide gel electrophoresis (SDS-PAGE), transferred to PVDF membranes, and probed separately with antibodies for Ac-histone H3, Ac-α-tubulin, histone H3, α-tubulin, HDAC1, HDAC6, HDAC8 and GAPDH. The antibodies of GAPDH, HDAC1, and HDAC8 were purchased from ABclonal and all other antibodies were from Cell Signalling Technology. Antibody signals were detected using an enhanced chemiluminescence system.

H2228 = experiment: SRB antiproliferation assay; type: cell-based; details: Homo sapiens, NCI-H2228, 48 h, ALK-addicted cells, read-out: Antiproliferative activity (IC50) H2228
HDAC8 = biological target: T3, HDAC8 (Homo sapiens, UniProt Q9BY41); experiment: HDAC inhibition assay (fluorogenic diacylpeptide, Reaction Biology); type: biochemical; details: tested once, ten-dose starting at 30 µM
T3 construct: purchased Reaction Biology Corporation; host or cells: baculovirus expression system in SF9 cells
T3 sequence (Q9BY41 1-377): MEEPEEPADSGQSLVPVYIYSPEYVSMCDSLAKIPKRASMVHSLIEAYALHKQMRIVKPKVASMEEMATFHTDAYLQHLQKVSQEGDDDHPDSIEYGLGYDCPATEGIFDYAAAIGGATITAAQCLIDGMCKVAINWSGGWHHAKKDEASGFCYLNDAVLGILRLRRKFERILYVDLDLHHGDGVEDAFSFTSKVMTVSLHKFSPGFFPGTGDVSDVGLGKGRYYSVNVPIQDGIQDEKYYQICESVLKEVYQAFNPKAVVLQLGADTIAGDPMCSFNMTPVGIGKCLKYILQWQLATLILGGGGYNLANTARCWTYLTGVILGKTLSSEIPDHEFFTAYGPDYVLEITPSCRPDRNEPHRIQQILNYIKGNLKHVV

ALK = biological target: T4, ALK (Homo sapiens, UniProt Q9UM73); experiment: ALK in vitro enzymatic assay (radioisotope P81 filter-binding, Reaction Biology); type: biochemical
T4 construct: purchased Reaction Biology Corporation
T4 sequence (Q9UM73 19-1620): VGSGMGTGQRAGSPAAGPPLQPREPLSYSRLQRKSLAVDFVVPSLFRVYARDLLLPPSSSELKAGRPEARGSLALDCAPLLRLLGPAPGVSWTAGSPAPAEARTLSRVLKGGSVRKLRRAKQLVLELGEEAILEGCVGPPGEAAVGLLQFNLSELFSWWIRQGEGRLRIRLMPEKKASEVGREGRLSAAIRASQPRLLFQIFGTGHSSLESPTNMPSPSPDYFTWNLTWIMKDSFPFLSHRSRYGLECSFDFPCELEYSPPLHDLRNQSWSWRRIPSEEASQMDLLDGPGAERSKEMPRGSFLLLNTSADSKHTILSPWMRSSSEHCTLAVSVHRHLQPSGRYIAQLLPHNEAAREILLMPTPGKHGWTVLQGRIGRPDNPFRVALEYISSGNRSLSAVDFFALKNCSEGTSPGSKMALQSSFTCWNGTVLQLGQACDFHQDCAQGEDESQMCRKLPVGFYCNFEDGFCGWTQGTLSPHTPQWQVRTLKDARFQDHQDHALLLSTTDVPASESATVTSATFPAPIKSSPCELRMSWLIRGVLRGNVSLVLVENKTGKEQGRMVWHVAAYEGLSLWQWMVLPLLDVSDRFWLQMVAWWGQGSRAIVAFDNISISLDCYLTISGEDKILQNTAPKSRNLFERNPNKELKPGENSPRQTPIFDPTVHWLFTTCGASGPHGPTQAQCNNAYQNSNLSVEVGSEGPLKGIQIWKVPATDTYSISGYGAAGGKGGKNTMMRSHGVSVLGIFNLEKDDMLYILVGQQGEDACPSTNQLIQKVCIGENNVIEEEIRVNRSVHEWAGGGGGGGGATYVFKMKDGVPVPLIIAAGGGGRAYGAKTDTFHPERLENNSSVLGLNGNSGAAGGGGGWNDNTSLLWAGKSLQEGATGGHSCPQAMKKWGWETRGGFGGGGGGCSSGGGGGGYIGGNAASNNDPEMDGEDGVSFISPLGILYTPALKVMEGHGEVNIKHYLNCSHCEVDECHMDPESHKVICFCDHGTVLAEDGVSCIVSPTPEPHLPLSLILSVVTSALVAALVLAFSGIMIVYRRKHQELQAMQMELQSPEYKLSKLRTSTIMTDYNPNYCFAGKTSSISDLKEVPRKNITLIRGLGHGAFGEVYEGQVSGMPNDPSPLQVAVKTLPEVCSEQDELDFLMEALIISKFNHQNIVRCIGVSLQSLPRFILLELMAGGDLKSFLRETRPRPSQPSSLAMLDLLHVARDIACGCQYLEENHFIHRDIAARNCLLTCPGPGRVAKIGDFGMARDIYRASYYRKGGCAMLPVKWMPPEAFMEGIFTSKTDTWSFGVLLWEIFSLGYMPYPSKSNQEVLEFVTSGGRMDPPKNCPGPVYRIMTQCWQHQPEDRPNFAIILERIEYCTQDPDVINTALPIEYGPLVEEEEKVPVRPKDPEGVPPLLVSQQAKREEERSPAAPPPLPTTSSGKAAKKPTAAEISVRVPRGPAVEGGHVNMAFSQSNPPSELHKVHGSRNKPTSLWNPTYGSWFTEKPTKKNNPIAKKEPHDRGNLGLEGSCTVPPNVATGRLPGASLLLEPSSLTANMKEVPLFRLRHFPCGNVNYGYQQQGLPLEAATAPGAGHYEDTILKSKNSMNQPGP

HDAC1 = biological target: T5, HDAC1 (Homo sapiens, UniProt Q13547); experiment: HDAC inhibition assay (fluorogenic peptide, Reaction Biology); type: biochemical; details: tested once, ten-dose starting at 30 µM
T5 construct: purchased Reaction Biology Corporation; host or cells: baculovirus expression system in SF9 cells
T5 sequence (Q13547 whole entry): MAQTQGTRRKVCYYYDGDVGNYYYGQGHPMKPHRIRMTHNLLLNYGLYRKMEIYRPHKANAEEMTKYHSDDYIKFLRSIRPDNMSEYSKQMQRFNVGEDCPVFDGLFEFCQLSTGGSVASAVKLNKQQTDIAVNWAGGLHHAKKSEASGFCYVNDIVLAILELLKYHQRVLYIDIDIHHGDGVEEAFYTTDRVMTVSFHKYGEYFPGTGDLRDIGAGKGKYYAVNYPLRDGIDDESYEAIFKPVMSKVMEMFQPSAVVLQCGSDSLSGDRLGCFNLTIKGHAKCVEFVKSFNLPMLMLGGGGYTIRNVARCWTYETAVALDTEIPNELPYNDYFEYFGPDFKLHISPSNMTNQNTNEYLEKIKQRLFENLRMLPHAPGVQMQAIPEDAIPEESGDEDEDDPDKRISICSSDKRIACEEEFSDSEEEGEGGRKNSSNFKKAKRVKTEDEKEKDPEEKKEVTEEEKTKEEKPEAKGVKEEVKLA

HDAC6 = biological target: T6, HDAC6 (Homo sapiens, UniProt Q9UBN7); experiment: as above; type: biochemical; details: tested once, ten-dose starting at 30 µM
T6 construct: purchased Reaction Biology Corporation; host or cells: baculovirus expression system in SF9 cells
T6 sequence (Q9UBN7 1-1215): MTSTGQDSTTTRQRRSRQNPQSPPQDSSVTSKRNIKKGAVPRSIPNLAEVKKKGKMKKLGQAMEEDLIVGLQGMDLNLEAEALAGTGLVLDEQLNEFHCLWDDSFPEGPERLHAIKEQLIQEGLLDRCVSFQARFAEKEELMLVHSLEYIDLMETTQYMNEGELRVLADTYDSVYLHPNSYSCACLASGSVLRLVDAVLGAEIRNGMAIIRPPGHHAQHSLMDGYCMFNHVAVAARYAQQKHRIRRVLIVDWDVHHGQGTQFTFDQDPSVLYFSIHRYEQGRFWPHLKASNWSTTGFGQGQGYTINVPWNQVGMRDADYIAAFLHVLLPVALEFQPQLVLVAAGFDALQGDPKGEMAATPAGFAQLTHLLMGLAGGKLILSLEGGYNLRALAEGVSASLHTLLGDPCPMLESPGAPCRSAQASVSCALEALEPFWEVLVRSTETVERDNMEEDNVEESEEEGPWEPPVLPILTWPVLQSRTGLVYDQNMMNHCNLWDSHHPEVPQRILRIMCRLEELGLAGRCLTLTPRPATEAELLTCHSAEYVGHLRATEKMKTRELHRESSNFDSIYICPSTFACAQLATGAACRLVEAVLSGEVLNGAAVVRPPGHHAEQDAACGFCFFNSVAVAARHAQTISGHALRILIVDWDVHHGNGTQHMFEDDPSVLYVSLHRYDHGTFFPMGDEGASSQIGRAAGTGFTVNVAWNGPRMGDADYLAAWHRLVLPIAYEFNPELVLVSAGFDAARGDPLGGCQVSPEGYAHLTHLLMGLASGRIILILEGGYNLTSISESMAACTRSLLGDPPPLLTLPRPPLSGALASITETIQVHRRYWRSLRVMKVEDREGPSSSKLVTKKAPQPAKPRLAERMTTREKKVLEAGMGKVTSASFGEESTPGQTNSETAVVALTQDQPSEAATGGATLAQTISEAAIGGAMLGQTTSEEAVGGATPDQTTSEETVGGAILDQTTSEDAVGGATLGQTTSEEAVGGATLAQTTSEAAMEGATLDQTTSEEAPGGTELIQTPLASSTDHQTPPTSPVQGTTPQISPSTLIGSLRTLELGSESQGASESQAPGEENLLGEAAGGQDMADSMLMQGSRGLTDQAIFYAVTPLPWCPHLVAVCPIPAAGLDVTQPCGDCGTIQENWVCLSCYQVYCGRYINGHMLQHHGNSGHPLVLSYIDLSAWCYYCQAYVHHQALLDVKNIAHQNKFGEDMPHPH

HDAC11 = biological target: T7, HDAC11 (Homo sapiens, UniProt Q96DB2); experiment: as above; type: biochemical; details: tested once, ten-dose starting at 30 µM
T7 construct: purchased Reaction Biology Corporation; host or cells: baculovirus expression system in SF9 cells
T7 sequence (Q96DB2 1-347): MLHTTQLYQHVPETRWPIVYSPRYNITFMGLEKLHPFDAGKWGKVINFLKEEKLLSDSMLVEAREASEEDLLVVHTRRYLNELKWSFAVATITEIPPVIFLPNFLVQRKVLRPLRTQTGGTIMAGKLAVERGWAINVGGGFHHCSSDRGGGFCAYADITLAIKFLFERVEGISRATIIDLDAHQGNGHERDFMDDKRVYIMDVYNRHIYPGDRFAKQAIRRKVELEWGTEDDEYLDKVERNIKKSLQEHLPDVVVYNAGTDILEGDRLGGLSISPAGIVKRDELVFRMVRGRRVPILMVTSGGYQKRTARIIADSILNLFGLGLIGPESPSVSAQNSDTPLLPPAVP

CYP1A2 = biological target: T8, CYP1A2 (Homo sapiens, UniProt P05177); experiment: CYP450 inhibition assay; type: in vitro ADME; details: human recombinant enzyme
T8 construct: purchased Reaction Biology Corporation; host or cells: CYP cDNA baculovirus expression systems
T8 sequence (P05177 whole entry): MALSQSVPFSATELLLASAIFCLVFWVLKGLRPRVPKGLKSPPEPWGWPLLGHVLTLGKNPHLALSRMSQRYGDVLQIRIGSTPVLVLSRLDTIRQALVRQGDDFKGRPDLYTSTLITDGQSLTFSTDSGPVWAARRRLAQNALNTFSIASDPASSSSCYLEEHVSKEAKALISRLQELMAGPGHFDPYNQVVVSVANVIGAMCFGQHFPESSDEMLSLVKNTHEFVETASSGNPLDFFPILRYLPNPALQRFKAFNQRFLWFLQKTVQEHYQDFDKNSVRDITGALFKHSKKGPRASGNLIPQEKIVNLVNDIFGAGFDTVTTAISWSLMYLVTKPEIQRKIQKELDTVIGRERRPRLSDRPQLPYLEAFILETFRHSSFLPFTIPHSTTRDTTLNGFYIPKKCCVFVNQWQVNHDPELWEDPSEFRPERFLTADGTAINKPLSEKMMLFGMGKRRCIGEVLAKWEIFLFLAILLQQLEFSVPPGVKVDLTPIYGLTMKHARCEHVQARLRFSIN

CYP2C19 = biological target: T9, CYP2C19 (Homo sapiens, UniProt P33261); experiment: CYP450 inhibition assay; type: in vitro ADME; details: human recombinant enzyme
T9 construct: purchased Reaction Biology Corporation; host or cells: CYP cDNA baculovirus expression systems
T9 sequence (P33261 whole entry): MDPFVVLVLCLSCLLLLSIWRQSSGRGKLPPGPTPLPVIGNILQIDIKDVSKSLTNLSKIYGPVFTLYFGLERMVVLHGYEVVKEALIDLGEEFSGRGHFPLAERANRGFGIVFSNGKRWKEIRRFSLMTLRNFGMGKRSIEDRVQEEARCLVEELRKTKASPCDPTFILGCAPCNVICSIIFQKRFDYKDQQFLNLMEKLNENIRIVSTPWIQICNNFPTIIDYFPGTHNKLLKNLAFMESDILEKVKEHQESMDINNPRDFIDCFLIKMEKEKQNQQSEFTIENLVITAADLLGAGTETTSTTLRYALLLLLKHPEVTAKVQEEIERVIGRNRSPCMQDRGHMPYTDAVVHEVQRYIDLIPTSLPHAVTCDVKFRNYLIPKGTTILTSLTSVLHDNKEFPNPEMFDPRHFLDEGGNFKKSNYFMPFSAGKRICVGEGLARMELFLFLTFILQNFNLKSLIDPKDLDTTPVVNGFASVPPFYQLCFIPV
Protocol: Assays were performed by Reaction Biology Corporation. […] CYP assays used human recombinant CYP1A2, CYP2C9, CYP2C19, CYP2D6, and CYP3A4 expressed in CYP cDNA baculovirus expression systems. […] Substrates used were 3-cyano-7-ethoxycoumarin for CYP1A2, 2C19, and 2D6; Vivid OOMR Substrate for CYP2C9; and Vivid BOMR Substrate for CYP3A4. hERG inhibition assays involved a binding competition between the tested compounds and a fluorescently labelled compound tracer (Predictor hERG Tracer Red) for membrane-bound hERG (Predictor hERG Membrane). E-4031 served as the positive control.

A549 = experiment: SRB antiproliferation assay; type: cell-based; details: Homo sapiens, 48 h, read-out: Antiproliferative activity (IC50) A549
[3] = tested on: protein expression level of HDAC1, HDAC6, or HDAC8; experiment: Western blot of HDAC protein expression; type: cell-based, human; details: western blot after treatment (supplemental Figure S3)
Protocol: as §2
Figure S3. Western blots of HDAC1, HDAC6, and HDAC8 after drug treatment and vehicle control
activity was assessed by MTS assay, and the concentration of inhibitors was determined to be half of their
was tested five times, and the results were normalized to 1. (blank) […]

U87MG = experiment: SRB antiproliferation assay; type: cell-based; details: Homo sapiens, U-87 MG, 48 h, read-out: Antiproliferative activity (IC50) U87MG
MCF7 = experiment: SRB antiproliferation assay; type: cell-based; details: Homo sapiens, 48 h, read-out: Antiproliferative activity (IC50) MCF7
[4] = 20 μM ATP, ten-dose IC50 mode, duplicate, average

T1 sequence (P08069 31-1367): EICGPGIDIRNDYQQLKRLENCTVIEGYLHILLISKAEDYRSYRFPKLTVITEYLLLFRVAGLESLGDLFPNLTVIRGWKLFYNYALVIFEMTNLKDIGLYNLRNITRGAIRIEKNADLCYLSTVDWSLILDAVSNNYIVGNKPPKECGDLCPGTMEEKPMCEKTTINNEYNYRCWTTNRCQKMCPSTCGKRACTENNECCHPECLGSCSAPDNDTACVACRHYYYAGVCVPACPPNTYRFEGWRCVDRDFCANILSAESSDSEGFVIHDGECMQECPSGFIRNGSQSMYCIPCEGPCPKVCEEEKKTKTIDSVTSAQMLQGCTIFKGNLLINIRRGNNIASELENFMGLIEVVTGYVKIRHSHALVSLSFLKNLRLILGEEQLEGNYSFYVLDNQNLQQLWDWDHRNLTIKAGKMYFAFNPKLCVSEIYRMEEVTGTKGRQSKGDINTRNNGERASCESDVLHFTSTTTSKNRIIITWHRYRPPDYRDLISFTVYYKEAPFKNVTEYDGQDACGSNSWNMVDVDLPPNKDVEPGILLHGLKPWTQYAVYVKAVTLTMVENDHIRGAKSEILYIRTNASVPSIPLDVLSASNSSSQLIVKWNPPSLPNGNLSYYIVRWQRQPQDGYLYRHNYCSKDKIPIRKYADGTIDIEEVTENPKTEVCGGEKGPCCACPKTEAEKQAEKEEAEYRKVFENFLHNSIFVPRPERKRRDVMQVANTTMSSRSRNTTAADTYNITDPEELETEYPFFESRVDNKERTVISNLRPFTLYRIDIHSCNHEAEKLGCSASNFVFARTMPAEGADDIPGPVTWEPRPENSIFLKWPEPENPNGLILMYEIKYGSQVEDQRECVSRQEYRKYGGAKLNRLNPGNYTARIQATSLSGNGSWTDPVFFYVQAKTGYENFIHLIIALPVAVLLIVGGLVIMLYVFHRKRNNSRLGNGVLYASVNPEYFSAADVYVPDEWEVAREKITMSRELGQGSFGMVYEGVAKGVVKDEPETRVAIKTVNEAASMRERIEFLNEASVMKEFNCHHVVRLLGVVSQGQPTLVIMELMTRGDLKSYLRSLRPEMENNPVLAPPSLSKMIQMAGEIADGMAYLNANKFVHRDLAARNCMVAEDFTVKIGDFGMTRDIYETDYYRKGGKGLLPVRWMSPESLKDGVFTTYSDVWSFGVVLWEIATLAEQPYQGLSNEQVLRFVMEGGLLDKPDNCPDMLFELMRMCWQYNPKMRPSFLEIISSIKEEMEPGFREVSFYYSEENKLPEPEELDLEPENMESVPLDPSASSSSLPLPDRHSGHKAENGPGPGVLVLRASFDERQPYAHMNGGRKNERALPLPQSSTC

SMILES | IC50 (H2228) | IC50 (HDAC8) | IC50 (ALK; [4]) | IC50 (HDAC1) | IC50 (HDAC6) | IC50 (HDAC11) | other results
CC(C)NC(=O)[C@H]1CC[C@@H](n2/c(=N/C(=O)c3cc(F)cc(F)c3)[nH]c3ccc(CN4CCC(C(C)(C)O)CC4)cc32)CC1 [Compound 1] | – | – | – | – | – | – | IC50 (IGF1R): 100 nM; IC50 (c-Src): 420 nM
CCCCc1nc2cc(/C=C/C(=O)NO)ccc2n1CCN(CC)CC [Pracinostat (2), Pracinostat, reference compound] | 690 ± 50 nM | – | – | – | – | – | acetylated histone H3 level [1]: highest level of acetylated histone; phosphorylation level of Y1604 on ALK [2]: enhanced the ALK kinase activity
CC(C)NC(=O)CCCn1/c(=N/C(=O)c2cc(F)cc(F)c2)[nH]c2cc(/C=C/C(=O)NO)ccc21 [Compound 3d, (E)-3,5-Difluoro-N-(5-((E)-3-(hydroxyamino)-3-oxoprop-1-en-1-yl)-1–(4-(isopropylamino)-4-oxobutyl)-1H-benzo[d]imidazol-2(3H)-ylidene)benzamide] | – | 7770 nM | 3730 nM | > 30000 nM | 2470 nM | > 30000 nM | –
CCCC(=O)/N=c1\[nH]c2cc(/C=C/C(=O)NO)ccc2n1CCCC(=O)NC(C)C [Compound 3e, 4-((E)-2-(butyrylimino)-5-((E)-3-(hydroxyamino)-3-oxoprop-1-en-1-yl)-2,3-dihydro-1H-benzo[d]imidazol-1-yl)-N-isopropylbutanamide] | – | 1780 nM | > 10000 nM | 840 nM | 210 nM | 1420 nM | –
CC(C)NC(=O)[C@H]1CC[C@@H](n2/c(=N/C(=O)c3ccccc3)[nH]c3cc(NC(=O)CCCCCCC(=O)NO)ccc32)CC1 [Compound 3f] | – | 2520 nM | 15 nM | 2290 nM | 100 nM | 1720 nM | –
CC(C)NC(=O)CCCn1/c(=N/C(=O)c2ccccc2)[nH]c2cc(/C=C/C(=O)NO)ccc21 [Compound 3a, (E)-N-(5-((E)-3-(Hydroxyamino)-3-oxoprop-1-en-1-yl)-1–(4-(isopropylamino)-4-oxobutyl)-1H-benzo[d]imidazol-2(3H)-ylidene)benzamide] | – | 2950 nM | 5750 nM | 6180 nM | 810 nM | 9350 nM | –
CC(=O)N1CCN(c2ccc(OCC3COC(Cn4ccnc4)(c4ccc(Cl)cc4Cl)O3)cc2)CC1 (centres unmarked) [Ketoconazole, reference compound] | – | – | – | – | – | – | IC50 (CYP1A2): 590 nM; IC50 (CYP2C19): 1300 nM
CC(C)NC(=O)[C@H]1CC[C@@H](n2/c(=N/C(=O)c3ccccc3)[nH]c3ccc(/C=C/C(=O)NO)cc32)CC1 [Compound 3c, (E)-N-(6-((E)-3-(Hydroxyamino)-3-oxoprop-1-en-1-yl)-1-((1S,4S)-4-(isopropylcarbamoyl)cyclohexyl)-1H-benzo[d]imidazol-2(3H)-ylidene)benzamide] | 210 ± 70 nM | 2870 nM | 5.2 nM | > 30000 nM | 2340 nM | > 30000 nM | IC50 (A549): 7260 ± 2660 nM; protein expression level of HDAC1, HDAC6, or HDAC8 [3]: not perturbed; IC50 (ALK): 15 nM; fold greater ALK inhibition ability (ALK; hydroxamate moved from C-5 to C-6 position (versus 3b)): 3 fold; phosphorylation level of Y1604 on ALK [2]: significantly decreased; IC50 (U87MG): 11100 ± 810 nM; IC50 (MCF7): 980 ± 30 nM
CC(C)NC(=O)CCCn1/c(=N/C(=O)c2ccccc2)[nH]c2cc(Br)ccc21 [Compound 6, (E)-N-(5-Bromo-1–(4-(isopropylamino)-4-oxobutyl)-1H-benzo[d]imidazol-2(3H)-ylidene)benzamide] | – | – | – | – | – | – | inhibition at 10 µM (ALK; single dose at 10 μM, duplicate, average, read-out: ALK relative inhibition of enzymatic activity): 18.8%
C[C@@H](Oc1cc(-c2cnn(C3CCNCC3)c2)cnc1N)c1c(Cl)ccc(F)c1Cl [Crizotinib, reference compound] | 130 ± 50 nM | – | – | – | – | – | IC50 (U87MG): 48 ± 8 nM; IC50 (MCF7): 95 ± 24 nM
